Experimental data published in PMC7144554, “2-(Arylamino)-6-(trifluoromethyl)nicotinic Acid Derivatives: New HIV-1 RT Dual Inhibitors Active on Viral Replication” (Molecules, 2020).
Like-named read-outs stand apart in the source and are kept apart here.

Tests used:
[1] = test system: CEM cells; assay: Cell viability in CEM cells (MTT); format: cell-based; settings: highest concentration tested
Method: (§1) Drug-mediated inhibition of virus-induced cytotoxicity was assayed in TZM-BL cells. Triplicate wells of 96-well plates containing 1 × 10^4 TZMbl cells were infected with HIV-1 IIIB strain at a multiplicity of infection of 0.1. Serial dilutions of drugs were added immediately after infection. Luciferase activity was measured as reported. Two days after infection, the culture medium was removed from each well and 100 µl of Bright Glo reagent (Promega, Luis Obispo, CA) was added to the cells for measurement of luminescence using a Victor 2 luminometer (Perkin). The 50% effective concentration (EC50) was defined as the concentration that caused a 50% reduction of luciferase activity (relative light units) compared to virus control wells. Cell viability in CEM cells was quantified 5 days after infection with the MTT-dye reduction method.

[2] = Cell viability in CEM cells (MTT); format: cell-based; settings: human, MTT, 5 days
Method: as §1

[3] = test system: HIV-1 IIIB strain; assay: Antiviral assay, HIV-1 replication in TZMbl cells (luciferase); format: cell-based; settings: for EC50: read-out: HIV-1 EC50 TZMbl Cells
Method: Drug-mediated inhibition of virus-induced cytotoxicity was assayed in TZM-BL cells. […] Serial dilutions of drugs were added immediately after infection. Luciferase activity was measured as reported [67]. Two days after infection, the culture medium was removed from each well and 100 µl of Bright Glo reagent (Promega, Luis Obispo, CA) was added to the cells for measurement of luminescence using a Victor 2 luminometer (Perkin). […] Cell viability in CEM cells was quantified 5 days after infection with the MTT-dye reduction method.

[4] = Cytotoxicity in TZMbl cells; format: cell-based; settings: human
[5] = biological target: T1, HIV-1 RT-associated RNase H activity (wt RT) (Human immunodeficiency virus type 1 group M subtype B, UniProt P04585); assay: HIV-1 DNA polymerase-independent RNase H activity, wt RT; format: biochemical; settings: for IC50: RNase H IC50, wt RT
T1 construct: RT is a heterodimeric (p66/p51) multifunctional enzyme; made in house; host or cells: Escherichia coli strain M15
Method: p6HRT-prot vector was kindly provided by Dr. Stuart Le Grice Laboratory. Heterodimeric RT was expressed essentially as described. Briefly, Escherichia coli strain M15 containing the p6HRT-prot vector were grown up to an OD600 of 0.7 and induced with isopropyl β-D-1-thiogalactopyranoside (IPTG) 1.7 mM for 4 h. Cell pellets were resuspended in Lysis buffer (50 mM sodium phosphate pH 7.8, 0.5 mg/mL lysozyme), incubated on ice for 20 min, added 0.3 M final NaCl, sonicated and centrifuged at 30,000× g for 1 h. The supernatant was loaded into a Ni^2+-sepharose column pre-equilibrated with loading buffer (50 mM sodium phosphate pH 7.8, 0.3 M NaCl, 10% glycerol, 10 mM imidazole) and washed thoroughly with wash buffer (50 mM sodium phosphate pH 6.0, 0.3 M NaCl, 10% glycerol, 80 mM imidazole). RT was gradient-eluted with elute buffer (wash buffer with 0.5 M imidazole). Fractions were collected, protein purity was checked by SDS-PAGE and found to be higher than 90%. RT containing fractions were pooled and diluted 1:1 with dilute buffer (50 mM sodium phosphate pH 7.0, 10% glycerol) then loaded into a Hi-trap Heparine HP GE (Healthcare Lifescience) pre-equilibrated with 10-column volume of loading buffer 2 (50 mM sodium phosphate pH 7.0, 10% glycerol, 150 mM NaCl). Column was then washed with loading buffer 2 and RT was gradient-eluted with elute buffer 2 (50 mM sodium phosphate pH 7.0, 10% glycerol, 150 mM NaCl). Fractions were collected, protein was dialyzed and stored in buffer containing 50 mM Tris HCl pH 7.0, 25 mM NaCl, 1 mM EDTA, 50% glycerol. Catalytic activities and protein concentration were determined. Enzyme-containing fractions were pooled and aliquots were stored at −80 °C.
(§2) The RT-associated RNase H activity of wt and mutated HIV RTs was measured as described, in 100 µL reaction volume containing 50 mM Tris HCl pH 7.8, 6 mM MgCl2, 1 mM dithiothreitol (DTT), 80 mM KCl, hybrid RNA/DNA (5’-[…]-3’-Fluorescein, 5’-[…]-3’-Dabcyl), and different amounts of enzymes according to a linear range of dose-response curve—20 ng of wt RT; 50 ng K103N RT; 100 ng V108A RT; 4 ng Y181C RT; 100 ng Q475A RT; 100 ng A502F RT. The reaction mixture was incubated for 1 h at 37 °C, the reaction was stopped by addition of EDTA and products were measured with a Victor 3 (Perkin) at 490/528 nm.

[6] = biological target: T2, Q475A RT RNase H function (Human immunodeficiency virus type 1 group M subtype B, UniProt P04585, Q1062A); assay: RNase H activity of mutated RT Q475A; format: biochemical, HIV-1
T2 construct: Amino acid substitutions were introduced into the p66 HIV-1 RT subunit coded in a p6HRT-prot plasmid; made in house; host or cells: Escherichia coli strain M15
Method: (§3) Amino acid substitutions were introduced into the p66 HIV-1 RT subunit coded in a p6HRT-prot plasmid using the QuikChange protocol (Agilent Technologies Inc., Santa Clara, CA).
as §2

[7] = biological target: T3, V108A RT RNase H function (Human immunodeficiency virus type 1 group M subtype B, UniProt P04585, V695A); assay: RNase H activity of mutated RT V108A; format: biochemical, HIV-1; settings: read-out: RNase H IC50; V108A RT
T3 construct: Amino acid substitutions were introduced into the p66 HIV-1 RT subunit coded in a p6HRT-prot plasmid; made in house; host or cells: Escherichia coli strain M15
Method: as §3, §2

[8] = biological target: T4, A502F RT RNase H function (Human immunodeficiency virus type 1 group M subtype B, UniProt P04585, A1089F); assay: RNase H activity of mutated RT A502F; format: biochemical, HIV-1; settings: A502F RT
T4 construct: Amino acid substitutions were introduced into the p66 HIV-1 RT subunit coded in a p6HRT-prot plasmid; made in house; host or cells: Escherichia coli strain M15
Method: as §3, §2

[9] = test system: TZMbl cells; assay: Cytotoxicity in TZMbl cells; format: cell-based; settings: highest concentration tested
[10] = Human immunodeficiency virus 1, TZM-bl, TZMbl cells, HIV-1 IIIB

| SMILES | percentage of cells viability in presence of the highest concentration of inhibitor tested, CEM cells [1] | CC50 at 5 days [2] | EC50 [3, 10] | SI (selectivity index) ([3]; TZMbl cells) | melting point | CC50 [4] | IC50 [5] | IC50 [6] | RNase H Fold ([6]; Q475A RT, vs wt RT) | IC50 [7] | IC50 ([8]; read-out: RNase H IC50) | RNase H Fold ([8]; vs wt RT) | RNase H Fold ([5]; WT RT) | percentage of cells viability in presence of the highest concentration of inhibitor tested, TZMbl [9] | EC50 ([3]; Human immunodeficiency virus 1, IIIB, TZM-bl) |
| --- | --- | --- | --- | --- | --- | --- | --- | --- | --- | --- | --- | --- | --- | --- | --- |
| Cc1ccc(Cl)cc1Nc1nc(C(F)(F)F)ccc1C(=O)N1CCN(c2ccc(Cl)c(Cl)c2)CC1 [Compound 52, (2-((5-Chloro-2-methylphenyl)amino)-6-(trifluoromethyl)pyridin-3-yl)(4-(3,4-dichlorophenyl)piperazin-1-yl)methanone] | 76% | > 50 µM | 10 ± 1.2 µM | 1.6 | 165 to 167 °C | 15.7 ± 5.1 µM | 7.5 ± 2 µM |  |  |  |  |  |  |  |  |
| CC(C)c1ccc(O)c(=O)c(O)c1 [BTP, beta-Thujaplicinol, reference compound] |  |  |  |  |  |  |  | 0.19 ± 0.03 µM | 1.0 | 0.34 ± 0.4 µM | 0.17 ± 0.03 µM | 0.9 | 1 |  |  |
| COc1ccccc1CNC(=O)c1ccc(C(F)(F)F)nc1Nc1cc(Cl)ccc1C [Compound 39, 2-((5-Chloro-2-methylphenyl)amino)-N-(2-methoxybenzyl)-6-(trifluoromethyl)nicotinamide] | 55% | > 12.5 µM | > 10 µM |  | 148 to 150 °C | 14.8 ± 3.1 µM | 18.7 ± 1.7 µM |  |  |  |  |  |  |  |  |
| Cc1ccc(Cl)cc1Nc1nc(C(F)(F)F)ccc1C(=O)Oc1ccc(Cl)cc1 [Compound 13] | 70% | > 50 µM | 10 µM | 3.6 |  | 36 ± 1 µM | 9.3 ± 2.5 µM |  |  |  |  |  |  |  |  |
| CSc1ccc(OC(=O)c2ccc(C(F)(F)F)nc2Nc2cc(Cl)ccc2C)cc1 [Compound 24, 4-(Methylthio)phenyl 2-((5-chloro-2-methylphenyl)amino)-6-(trifluoromethyl)nicotinate] | 100% | > 50 µM | > 10 µM |  | 125 to 127 °C | 50 µM | 9.6 ± 0.8 µM |  |  |  |  |  |  |  |  |
| CCOC(=O)c1ccc(C(F)(F)F)nc1Nc1cc(Cl)ccc1C [Compound 9] | 100% | > 50 µM | > 10 µM |  |  | > 50 µM | 24 ± 1.7 µM |  |  |  |  |  |  | 75% |  |
| Cc1ccc(Cl)cc1Nc1nc(C(F)(F)F)ccc1C(=O)Oc1ccccc1O [Compound 16, 2-Hydroxyphenyl 2-((5-chloro-2-methylphenyl)amino)-6-(trifluoromethyl)nicotinate] | 100% | > 12.5 µM | > 10 µM |  | 179 to 180 °C | 12.2 ± 2.1 µM | 16.2 ± 6.6 µM |  |  |  |  |  |  |  |  |
| O=C1Nc2ccc(Cl)cc2[C@@](C#CC2CC2)(C(F)(F)F)O1 [EFV, efavirenz, reference compound] | 100% | > 50 µM |  |  |  | > 50 µM |  |  |  |  |  |  |  | 100% | 0.15 ± 0.02 µM |
| COc1ccc(OC(=O)c2ccc(C(F)(F)F)nc2Nc2cc(Cl)ccc2C)cc1 [Compound 23] | 100% | > 50 µM | > 10 µM |  |  | > 50 µM | 11.6 ± 4.3 µM |  |  |  |  |  |  | 70% |  |
| Cc1ccc(Cl)cc1Nc1nc(C(F)(F)F)ccc1C(=O)Oc1cccc(O)c1 [Compound 17, 3-Hydroxyphenyl 2-((5-chloro-2-methylphenyl)amino)-6-(trifluoromethyl)nicotinate] | 100% | > 50 µM | > 50 µM |  | 188 to 190 °C | > 50 µM | 26.6 ± 5.6 µM |  |  |  |  |  |  | 62% |  |
| Cc1ccc(Cl)cc1Nc1nc(C(F)(F)F)ccc1C(=O)NCc1ccc(Cl)cc1 [Compound 40, N-(4-chlorobenzyl)-2-((5-chloro-2-methylphenyl)amino)-6-(trifluoromethyl)nicotinamide] |  | 7.75 µM | > 4.7 µM |  | 130 to 131 °C | 4.7 ± 0.4 µM | 6.4 ± 0.5 µM |  |  |  |  |  |  |  |  |
| COc1cc(CNC(=O)c2ccc(C(F)(F)F)nc2Nc2cc(Cl)ccc2C)ccc1O [Compound 47, 2-((5-Chloro-2-methylphenyl)amino)-N-(4-hydroxy-3-methoxybenzyl)-6-(trifluoromethyl)nicotinamide] |  | 17.4 µM | > 10 µM |  | 142 to 143 °C | 15 ± 3 µM | 18.2 ± 1.7 µM |  |  |  |  |  |  |  |  |
| Cc1ccc(Cl)cc1Nc1nc(C(F)(F)F)ccc1C(=O)NCc1ccc(Cl)cc1Cl [Compound 45, 2-((5-Chloro-2-methylphenyl)amino)-N-(2,4-dichlorobenzyl)-6-(trifluoromethyl)nicotinamide] |  | 9.15 µM | > 10 µM |  | 153 to 155 °C | 5 ± 0.6 µM | 19.3 ± 0.6 µM |  |  |  |  |  |  |  |  |
